Values quoted from earlier work in PubChem BioAssay AID1259409 (Chemical Carcinogenesis Research Information System (CCRIS), 2018).
Where “and” joins values, the source holds several entries; their conditions need not be identical. Equal values may be shown once.

Test system: rodent chemically induced tumor inhibition, incidence and multiplicity
Test: CCRIS tumor inhibitor studies

COc1cc(/C=C/C(=O)O)ccc1O
tumour outcome (control, treated, inhibition, significance) (Carcinogen: 4-NITROQUINOLINE-1-OXIDE [56-57-5], Dose [Inhibitor]: 500 PPM IN DIET FOR 7 WK BEGINNING 1 WK PRIOR TO FIRST CARCINOGEN DOSE (STUDY DURATION: 32 WK), Route [Inhibitor]: ORAL, Species: RAT, Strain/Sex: F344/MALE, Target Tissue: Type of Lesion: TONGUE: PAPILLOMA OR CARCINOMA, Dose [Carcinogen]: 20 PPM IN DRINKING WATER FOR 5 WK (STUDY DURATION: 32 WK), Promoter: NONE): 9/15 (60%), 3/14 (21%), 65%, p<0.05 | tumour outcome (control, treated, inhibition, significance) (Carcinogen: 4-NITROQUINOLINE-1-OXIDE, 56-57-5, Dose [Inhibitor]: 0, 500 PPM IN DIET FOR 7 WK BEGINNING 1 WK PRIOR TO START OF CARCINOGEN TREATMENT (STUDY DURATION: 32 WK), Route [Inhibitor]: ORAL, Species: RAT, Strain/Sex: F344/MALE, Target Tissue: Type of Lesion: TONGUE: PAPILLOMA, Dose [Carcinogen]: 20 PPM IN DRINKING WATER FOR 5 WK, Promoter: NONE USED): 1/15 (7%), 2/14 (14%), -100%, not significant | tumour outcome (control, treated, inhibition, significance) (Carcinogen: 7,12-DIMETHYLBENZ[A]ANTHRACENE, 57-97-6, Dose [Inhibitor]: 0, 5 MG IN 200 µL ACETONE 2/WK BEGINNING 10 D POST CARCINOGEN DOSE APPLIED 30-40 MIN PRIOR TO EACH PROMOTER DOSE (STUDY, Route [Inhibitor]: DERMAL, Species: MOUSE, Strain/Sex: ICR/FEMALE, Target Tissue: Type of Lesion: SKIN: PAPILLOMA, Dose [Carcinogen]: 200 NMOL IN 200 µL ACETONE ONCE, Promoter: 12-O-TETRADECANOYLPHORBOL-13-ACETATE, 16561-29-8): 100%, 94%, 6%, not significant and 100%, 65%, 35%, not calculated | tumour outcome (control, treated, inhibition, significance) (Carcinogen: 7,12-DIMETHYLBENZ[A]ANTHRACENE, 57-97-6, Dose [Inhibitor]: 10 UMOL IN 200 µL ACETONE/DMSO (90:10) 2/WK FOR 19 WK BEGINNING 1 WK POST CARCINOGEN DOSE (STUDY DURATION: 20 WK), Route [Inhibitor]: DERMAL, Species: MOUSE, Strain/Sex: CD-1/FEMALE, Target Tissue: Type of Lesion: SKIN: PAPILLOMA, Dose [Carcinogen]: 200 NMOL IN 200 µL ACETONE ONCE, Promoter: 12-O-TETRADECANOYLPHORBOL-13-ACETATE, 16561-29-8): 68%, 64%, 6%, not calculated | tumour outcome (control, treated, inhibition, significance) (Carcinogen: 7,12-DIMETHYLBENZ[A]ANTHRACENE, 57-97-6, Dose [Inhibitor]: 50 UMOL IN 200 µL ACETONE/DMSO (90:10) 2/WK FOR 19 WK BEGINNING 1 WK POST CARCINOGEN DOSE (STUDY DURATION: 20 WK), Route [Inhibitor]: DERMAL, Species: MOUSE, Strain/Sex: CD-1/FEMALE, Target Tissue: Type of Lesion: SKIN: PAPILLOMA, Dose [Carcinogen]: 200 NMOL IN 200 µL ACETONE ONCE, Promoter: 12-O-TETRADECANOYLPHORBOL-13-ACETATE, 16561-29-8): 68%, 13%, 81%, not calculated | tumour outcome (control, treated, inhibition, significance) (Carcinogen: AZOXYMETHANE [25843-45-2], Dose [Inhibitor]: 0, 250 PPM IN DIET FOR 12 WK (STUDY DURATION: 35 WK), Route [Inhibitor]: ORAL, Species: RAT, Strain/Sex: F344/MALE, Target Tissue: Type of Lesion: INTESTINE: TUMOR, Dose [Carcinogen]: 15 MG/KG 3X/WK FOR 12 WK (STUDY DURATION: 35 WK), Promoter: NONE): 64%, 32%, 50%, p<0.05 | tumour outcome (control, treated, inhibition, significance) (Carcinogen: AZOXYMETHANE [25843-45-2], Dose [Inhibitor]: 0, 250 PPM IN DIET FOR 12 WK (STUDY DURATION: 35 WK), Route [Inhibitor]: ORAL, Species: RAT, Strain/Sex: F344/MALE, Target Tissue: Type of Lesion: SMALL INTESTINE: TUMOR, Dose [Carcinogen]: 15 MG/KG 3X/WK FOR 12 WK (STUDY DURATION: 35 WK), Promoter: NONE): 18%, 5%, 72%, not significant | tumour outcome (control, treated, inhibition, significance) (Carcinogen: AZOXYMETHANE [25843-45-2], Dose [Inhibitor]: 0, 250 PPM IN DIET FOR 23 WK BEGINNING POST LAST CARCINOGEN DOSE (STUDY DURATION: 35 WK), Route [Inhibitor]: ORAL, Species: RAT, Strain/Sex: F344/MALE, Target Tissue: Type of Lesion: INTESTINE: TUMOR, Dose [Carcinogen]: 15 MG/KG 3X/WK FOR 12 WK (STUDY DURATION: 35 WK), Promoter: NONE): 64%, 41%, 36%, p<0.05 | tumour outcome (control, treated, inhibition, significance) (Carcinogen: AZOXYMETHANE [25843-45-2], Dose [Inhibitor]: 0, 250 PPM IN DIET FOR 23 WK BEGINNING POST LAST CARCINOGEN DOSE (STUDY DURATION: 35 WK), Route [Inhibitor]: ORAL, Species: RAT, Strain/Sex: F344/MALE, Target Tissue: Type of Lesion: LARGE INTESTINE: TUMOR, Dose [Carcinogen]: 15 MG/KG 3X/WK FOR 12 WK (STUDY DURATION: 35 WK), Promoter: NONE): 11%, 36%, -227%, not significant | tumour outcome (control, treated, inhibition, significance) (Carcinogen: AZOXYMETHANE [25843-45-2], Dose [Inhibitor]: 0, 250 PPM IN DIET FOR 23 WK BEGINNING POST LAST CARCINOGEN DOSE (STUDY DURATION: 35 WK), Route [Inhibitor]: ORAL, Species: RAT, Strain/Sex: F344/MALE, Target Tissue: Type of Lesion: SMALL INTESTINE: TUMOR, Dose [Carcinogen]: 15 MG/KG 3X/WK FOR 12 WK (STUDY DURATION: 35 WK), Promoter: NONE): 18%, 18%, 0%, not significant | tumour outcome (control, treated, inhibition, significance) (Carcinogen: AZOXYMETHANE [25843-45-2], Dose [Inhibitor]: 0, 500 PPM IN DIET FOR 12 WK (STUDY DURATION: 35 WK), Route [Inhibitor]: ORAL, Species: RAT, Strain/Sex: F344/MALE, Target Tissue: Type of Lesion: INTESTINE: TUMOR, Dose [Carcinogen]: 15 MG/KG 3X/WK FOR 12 WK (STUDY DURATION: 35 WK), Promoter: NONE): 64%, 32%, 50%, p<0.05 | tumour outcome (control, treated, inhibition, significance) (Carcinogen: AZOXYMETHANE [25843-45-2], Dose [Inhibitor]: 0, 500 PPM IN DIET FOR 12 WK (STUDY DURATION: 35 WK), Route [Inhibitor]: ORAL, Species: RAT, Strain/Sex: F344/MALE, Target Tissue: Type of Lesion: LARGE INTESTINE: TUMOR, Dose [Carcinogen]: 15 MG/KG 3X/WK FOR 12 WK (STUDY DURATION: 35 WK), Promoter: NONE): 11%, 27%, -146%, not significant | tumour outcome (control, treated, inhibition, significance) (Carcinogen: AZOXYMETHANE [25843-45-2], Dose [Inhibitor]: 0, 500 PPM IN DIET FOR 12 WK (STUDY DURATION: 35 WK), Route [Inhibitor]: ORAL, Species: RAT, Strain/Sex: F344/MALE, Target Tissue: Type of Lesion: SMALL INTESTINE: TUMOR, Dose [Carcinogen]: 15 MG/KG 3X/WK FOR 12 WK (STUDY DURATION: 35 WK), Promoter: NONE): 18%, 5%, 72%, not significant | tumour outcome (control, treated, inhibition, significance) (Carcinogen: AZOXYMETHANE [25843-45-2], Dose [Inhibitor]: 0, 500 PPM IN DIET FOR 23 WK BEGINNING POST LAST CARCINOGEN DOSE (STUDY DURATION: 35 WK), Route [Inhibitor]: ORAL, Species: RAT, Strain/Sex: F344/MALE, Target Tissue: Type of Lesion: INTESTINE: TUMOR, Dose [Carcinogen]: 15 MG/KG 3X/WK FOR 12 WK (STUDY DURATION: 35 WK), Promoter: NONE): 64%, 41%, 36%, not significant
